In patent US9656962B2, “Ring-contracted morphinans and the use thereof” (Purdue Pharma L.P., priority 2013, dated 2017):

Assays:
Format in all cases: biochemical
μ-opioid receptor [1] = biological target: T1, μ-opioid receptor (Homo sapiens (Human), UniProt P35372); test: μ-opioid receptor [35S]GTPγS functional assay, HEK-293 or CHO cells (Table 4); settings: for Emax: relative to DAMGO; for EC50: μ GTP
Experimental: (§1) μ-Opioid Receptor Functional Assay Procedures: [^35S]GTPγS functional assays were conducted using freshly thawed μ-receptor membranes prepared in-house from a cell line expressing recombinant μ opioid receptor in a HEK-293, CHO or U-2 OS cell background, or purchased from a commercial source (Perkin Elmer, Shelton, Conn.; or DiscovRx, Fremont, Calif.). Assay reactions were prepared by sequentially adding the following reagents to binding buffer (100 mM NaCl, 10 mM MgCl2, 20 mM HEPES, pH 7.4) on ice (final concentrations indicated): membrane protein (0.026 mg/mL), saponin ([…]), GDP ([…]) and [^35S]GTPγS (0.20 nM; Perkin Elmer, Shelton, Conn.). The prepared membrane solution (190 μl/well) was transferred to 96-shallow well polypropylene plates containing 10 μl of 20× concentrated stock solutions of the agonist [D-Ala^2, N-methyl-Phe^4 Gly-ol^5]-enkephalin (DAMGO) prepared in dimethyl sulfoxide (DMSO). Plates were incubated for 30 min at about 25° C. with shaking Reactions were terminated by rapid filtration onto 96-well Unifilter GF/B filter plates (Perkin Elmer, Shelton, Conn.) using a 96-well tissue harvester (Perkin Elmer, Shelton, Conn.) followed by three filtration washes with 200 μl of ice-cold wash buffer (10 mM NaH2PO4, 10 mM Na2HPO4, pH 7.4). Filter plates were subsequently dried at 50° C. for 2-3 hours. BetaScint scintillation cocktail (Perkin Elmer, Shelton, Conn.) was added (50 μl/well) and plates were counted using a Packard Top-Count for 1 min/well. Data were analyzed using the sigmoidal dose-response curve fitting functions in GraphPad PRISM v. 3.0, or an in-house function for non-linear, sigmoidal dose-response curve-fitting. [^35S]GTPγS functional assays can also be conducted using freshly thawed μ-receptor membranes prepared from a cell line expressing recombinant μ opioid receptor in a CHO-K1 cell background.
(§2) μ GTP Emax (%) is the maximal effect elicited by a compound relative to the effect elicited by DAMGO, a standard μ agonist.
In TABLE 4, activity response of certain Compounds of the Invention to the μ- and κ-opioid receptors was determined as described above for functional assays using HEK-293 or CHO cells.

κ-opioid receptor = κ-opioid receptor (Homo sapiens (Human), UniProt P41145); test: κ-opioid receptor [35S]GTPγS functional assay, U-2 OS cells (Table 5); settings: for Emax: relative to U69,593; for EC50: κ GTP
Experimental: κ-Opioid Receptor Functional Assay Procedures: Functional [^35S]GTPγS binding assays were conducted as follows. κ opioid receptor membrane solution was prepared by sequentially adding final concentrations of 0.026 μg/μl κ membrane protein (in-house), 10 μg/mL saponin, 3 μM GDP and 0.20 nM [^35S]GTPγS to binding buffer (100 mM NaCl, 10 mM MgCl2, 20 mM HEPES, pH 7.4) on ice. The prepared membrane solution (190 μl/well) was transferred to 96-shallow well polypropylene plates containing 10 μl of 20× concentrated stock solutions of agonist prepared in DMSO. Plates were incubated for 30 min at a temperature of about 25° C. with shaking. Reactions were terminated by rapid filtration onto 96-well Unifilter GF/B filter plates (Perkin Elmer, Shelton, Conn.) using a 96-well tissue harvester (Packard) and followed by three filtration washes with 200 μl ice-cold binding buffer (10 mM NaH2PO4, 10 mM Na2HPO4, pH 7.4). Filter plates were subsequently dried at 50° C. for 2-3 hours. Fifty μl/well scintillation cocktail (Perkin Elmer, Shelton, Conn.) was added and plates were counted in a Packard Top-Count for 1 min/well.
κ GTP Emax (%) is the maximal effect elicited by a compound relative to the effect elicited by U69,593.
The following TABLE 5 provides results on the activity response of certain Compounds of the Invention at the μ- and κ-opioid receptors determined as described above using U-2 OS cells.

μ-opioid receptor [2] = biological target: T1, μ-opioid receptor; test: μ-opioid receptor [35S]GTPγS functional assay, U-2 OS cells (Table 5); settings: for Emax: relative to DAMGO; for EC50: μ GTP
Experimental: as §1, §2

Compound	Emax (μ-opioid receptor [1])	EC50 (μ-opioid receptor [1]; bound given in μM)	Emax (κ-opioid receptor)	EC50 (κ-opioid receptor)	Emax (μ-opioid receptor [2])	EC50 (μ-opioid receptor [2])	EC50 (μ-opioid receptor [2]; bound given in μM)	EC50 (μ-opioid receptor [1])
O=C(N[C@H]1CC23CCN(CC4CC4)[C@H](Cc4ccc(O)cc42)[C@]3(O)C1)c1ccccc1 (stereo in doubt) [Compound 79, N-((2S,3aS,4R,9bS)-12-(cyclopropyl-methyl)-3a,8-dihydroxy-1,2,3,3a,4,5-hexahydro-4,9b-(epiminoethano)cyclo-penta[a]naphthalen-2-yl)benzamide]	-1%	> 20 µM	–	–	–	–	–	–
Oc1ccc2c(c1)C13CCN(CC4CC4)[C@H](C2)[C@]1(O)C[C@H](NCc1ccccc1)C3 (stereo in doubt) [Compound 80, (2R,3aS,4R,9bS)-2-(benzylamino)-12-(cyclopropylmethyl)-2,3,4,5-tetrahydro-4,9b-(epiminoethano)-cyclopenta-[a]naphthalene-3a,8(1H)-diol]	1%	> 20 µM	–	–	–	–	–	–
Oc1ccc2c(c1)C13CCN(CC4CC4)[C@H](C2)[C@]1(O)C[C@H](N(Cc1ccccc1)Cc1ccccc1)C3 (stereo in doubt) [Compound 81, (2R,3aS,4R,9bS)-12-(cyclopropyl-methyl)-2-(dibenzylamino)-2,3,4,5-tetrahydro-4,9b-(epiminoethano)-cyclopenta-[a]naphthalene-3a,8(1H)-diol]	19 ± 1.53%	> 20 µM	–	–	–	–	–	–
O=C(N[C@@H]1CC23CCN(CC4CC4)[C@H](Cc4ccc(O)cc42)[C@]3(O)C1)c1ccccc1 (stereo in doubt) [Compound 82, N-((2R,3aS,4R,9bS)-12-(cyclopropyl-methyl)-3a,8-dihydroxy-1,2,3,3a,4,5-hexahydro-4,9b-(epiminoethano)cyclo-penta[a]naphthalen-2-yl)benzamide]	1%	> 20 µM	–	–	–	–	–	–
O=C(Nc1ccccc1)N[C@@H]1CC23CCN(CC4CC4)[C@H](Cc4ccc(O)cc42)[C@]3(O)C1 (stereo in doubt) [Compound 83, 1-((2R,3aS,4R,9bS)-12-(cyclopropyl-methyl)-3a,8-dihydroxy-1,2,3,3a,4,5-hexahydro-4,9b-(epiminoethano)cyclo-penta[a]naphthalen-2-yl)-3-phenylurea]	0%	> 20 µM	–	–	–	–	–	–
O=C([C@H]1C[C@]23CCN(CC4CC4)[C@H](Cc4ccc(O)cc42)[C@]3(O)C1)N1CCCCC1 [Compound 57, ((2S,3aS,4R,9bS)-12-(cyclopropylmethyl)-3a,8-dihydroxy-1,2,3,3a,4,5-hexahydro-4,9b-(epiminoethano)cyclopenta-[a]naphthalen-2-yl)(piperidin-1-yl)methanone]	–	–	90.3 ± 2.6%	5.88 ± 0.79 nM	37.7 ± 6.69%	0.00279 ± 0.00076 µM	–	–
O=C([C@@H]1C[C@]23CCN(CC4CC4)[C@H](Cc4ccc(O)cc42)[C@]3(O)C1)N1CCOCC1 [Compound 58, ((2R,3aS,4R,9bS)-12-(cyclopropylmethyl)-3a,8-dihydroxy-1,2,3,3a,4,5-hexahydro-4,9b-(epiminoethano)cyclopenta-[a]naphthalen-2-yl)(morpholino)-methanone]	–	–	93.7 ± 4.48%	24.3 ± 5.67 nM	21.7 ± 5.49%	0.0143 ± 0.00543 µM	–	–
CCN(CC)C(=O)[C@@H]1C[C@]23CCN(CC4CC4)[C@H](Cc4ccc(O)cc42)[C@]3(O)C1 [Compound 59, (2R,3aS,4R,9bS)-12-(cyclopropylmethyl)-N,N-diethyl-3a,8-dihydroxy-1,2,3,3a,4,5-hexahydro-4,9b-(epiminoethano)cyclo-penta[a]naphthalene-2-carboxamide]	–	–	105 ± 4.33%	26 ± 2.61 nM	25.7 ± 0.33%	0.0226 ± 0.00631 µM	–	–
CN(C)C(=O)[C@@H]1C[C@]23CCN(CC4CC4)[C@H](Cc4ccc(O)cc42)[C@]3(O)C1 [Compound 62, (2R,3aS,4R,9bS)-12-(cyclopropylmethyl)-3a,8-dihydroxy-N,N-dimethyl-1,2,3,3a,4,5-hexahydro-4,9b-(epiminoethano)cyclo-penta[a]naphthalene-2-carboxamide]	–	–	109 ± 3.67%	23.6 ± 1.09 nM	25 ± 0.58%	0.017 ± 0.00331 µM	–	–
CN(CC(=O)O)C(=O)[C@@H]1C[C@]23CCN(CC4CC4)[C@H](Cc4ccc(O)cc42)[C@]3(O)C1 [Compound 66, 2-((2R,3aS,4R,9bS)-12-(cyclopropyl-methyl)-3a,8-dihydroxy-N-methyl-1,2,3,3a,4,5-hexahydro-4,9b-(epiminoethano)cyclopenta[a]naphthalene-2-carboxamido)acetic acid]	–	–	77.3 ± 0.88%	168 ± 8.15 nM	15.5 ± 1.5%	0.029 ± 0.00429 µM	–	–
NC(=O)[C@@H]1C[C@]23CCN(CC(F)(F)F)[C@H](Cc4ccc(O)cc42)[C@]3(O)C1 [Compound 75, (2R,3aS,4R,9bS)-3a,8-dihydroxy-12-(2,2,2-tritluoroethyl)-1,2,3,3a,4,5-hexahydro-4,9b-(epiminoethano)cyclo-penta[a]naphthalene-2-carboxamide]	–	–	69 ± 6.03%	1260 ± 74.6 nM	2%	–	> 20 µM	–
NC(=O)[C@H]1C[C@]23CCN(CC(F)(F)F)[C@H](Cc4ccc(O)cc42)[C@]3(O)C1 [Compound 76, (2S,3aS,4R,9bS)-3a,8-dihydroxy-12-(2,2,2-trifluoroethyl)-1,2,3,3a,4,5-hexahydro-4,9b-(epiminoethano)cyclo-penta[a]naphthalene-2-carboxamide]	–	–	81 ± 6.66%	923 ± 31.9 nM	2%	–	> 20 µM	–
O=C(NCCN1CCOCC1)[C@@H]1C[C@]23CCN(CC4CC4)[C@H](Cc4ccc(O)cc42)[C@]3(O)C1 [Compound 84, (2R,3aS,4R,9bS)-12-(cyclopropyl-methyl)-3a,8-dihydroxy-N-(2-morpholinoethyl)-1,2,3,3a,4,5-hexahydro-4,9b-(epimino-ethano)cyclopenta[a]naphthalene-2-carboxamide]	19.7 ± 1.67%	–	–	–	–	–	–	0.0717 ± 0.0237 µM
O=C(NCCCN1CCOCC1)[C@@H]1C[C@]23CCN(CC4CC4)[C@H](Cc4ccc(O)cc42)[C@]3(O)C1 [Compound 85, (2R,3aS,4R,9bS)-12-(cyclopropyl-methyl)-3a,8-dihydroxy-N-(3-morpholinopropyl)-1,2,3,3a,4,5-hexahydro-4,9b-(epimino-ethano)cyclopenta[a]naphthalene-2-carboxamide]	-1%	> 20 µM	–	–	–	–	–	–
O=C([C@@H]1C[C@]23CCN(CC4CC4)[C@H](Cc4ccc(O)cc42)[C@]3(O)C1)N1CCN(c2ccccc2)CC1 [Compound 86, ((2R,3aS,4R,9bS)-12-(cyclopropylmethyl)-3a,8-dihydroxy-1,2,3,3a,4,5-hexahydro-4,9b-(epiminoethano)cyclopenta-[a]naphthalen-2-yl)(4-phenylpiperazin-1-yl)methanone]	12.8 ± 0.63%	–	–	–	–	–	–	0.0288 ± 0.0105 µM
O=C([C@@H]1C[C@]23CCN(CC4CC4)[C@H](Cc4ccc(O)cc42)[C@]3(O)C1)N1CCSCC1 [Compound 87, ((2R,3aS,4R,9bS)-12-(cyclopropylmethyl)-3a,8-dihydroxy-1,2,3,3a,4,5-hexahydro-4,9b-(epiminoethano)cyclopenta-[a]naphthalen-2-yl)(thiomorpholino)-methanone]	1%	> 20 µM	–	–	–	–	–	–
O=C([C@@H]1C[C@]23CCN(CC4CC4)[C@H](Cc4ccc(O)cc42)[C@]3(O)C1)N1CCC(N2CCCC2)CC1 [Compound 88, ((2R,3aS,4R,9bS)-12-(cyclopropylmethyl)-3a,8-dihydroxy-1,2,3,3a,4,5-hexahydro-4,9b-(epiminoethano)cyclopenta-[a]naphthalen-2-yl)(4-(pyrrolidin-1-yl)piperidin-1-yl)methanone]	0%	> 20 µM	–	–	–	–	–	–
